Test results taken from paper PMC11364541 (Nature Communications, 2024).

Target: T1, SLC13A3 (Homo sapiens, UniProt Q8WWT9)
T1 sequence (Q8WWT9 1-602): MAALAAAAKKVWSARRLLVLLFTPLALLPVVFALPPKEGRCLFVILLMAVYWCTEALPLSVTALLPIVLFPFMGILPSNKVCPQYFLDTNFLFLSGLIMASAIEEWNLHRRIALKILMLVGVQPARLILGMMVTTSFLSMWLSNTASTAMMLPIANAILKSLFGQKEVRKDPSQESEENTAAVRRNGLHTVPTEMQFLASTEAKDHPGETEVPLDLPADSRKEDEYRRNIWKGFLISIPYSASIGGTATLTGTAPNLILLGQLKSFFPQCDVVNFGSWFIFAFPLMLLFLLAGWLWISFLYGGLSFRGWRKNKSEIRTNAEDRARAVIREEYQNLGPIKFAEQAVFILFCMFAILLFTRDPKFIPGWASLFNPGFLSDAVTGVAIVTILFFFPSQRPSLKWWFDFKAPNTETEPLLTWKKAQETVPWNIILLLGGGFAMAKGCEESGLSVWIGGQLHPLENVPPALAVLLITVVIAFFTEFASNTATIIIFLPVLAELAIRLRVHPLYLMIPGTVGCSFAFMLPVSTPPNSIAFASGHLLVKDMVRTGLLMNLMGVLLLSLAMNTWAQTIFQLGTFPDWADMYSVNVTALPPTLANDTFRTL
Assay: inhibition of […]-succinate uptake in SLC13A3-transfected HEK293 cells
Format: cell-based

Which IC50 does the source give for `N[C@@H](CCC(=O)N[C@@H](CS)C(=O)NCC(=O)O)C(=O)O` [GSH, glutathione] here?
Its IC50 is 1.89 mM.
